# Results: paper PMC5218480 (PLoS ONE, 2017)
# System: MV-4-11 cells
# Assay: Gene expression microarray analysis (Affymetrix PrimeView) and GSEA
# Assay type: cell-based, human
# Set-up: RFU PODN (11730768_x_at) / Fold change /veh PODN (11730768_x_at) / RFU LINC00158 (11744669_a_at) / Fold change /veh LINC00158 (11744669_a_at) / RFU DUSP10 (11751237_a_at) / Fold change /veh DUSP10 (11751237_a_at) / RFU ID3 (11757404_x_at) / Fold change /veh ID3 (11757404_x_at) / RFU PLEKHG5 (11737974_s_at) / Fold change /veh PLEKHG5 (11737974_s_at) / RFU LRRC4B (11730491_at) / Fold change /veh LRRC4B (11730491_at) / RFU GIMAP4 (11747438_a_at) / Fold change /veh GIMAP4 (11747438_a_at) / RFU KRT8 (11758183_x_at) / Fold change /veh KRT8 (11758183_x_at) / RFU CNN1 (11734310_a_at) / Fold change /veh CNN1 (11734310_a_at) / RFU VPS37D (11726825_at) / Fold change /veh VPS37D (11726825_at) / RFU C10orf10 (11716522_x_at) / Fold change /veh C10orf10 (11716522_x_at) / RFU KIR2DL2 /// KIR2DL4 /// KIR2DL5A /// KIR2DL5B /// KIR2DS1 /// KIR2DS2 /// KIR2DS3 /// KIR2DS4 /// KIR3DL3 /// KIR3DL3 /// KIR3DS1 (11738374_at) / Fold change /veh KIR2DL2 /// KIR2DL4 /// KIR2DL5A /// KIR2DL5B /// KIR2DS1 /// KIR2DS2 /// KIR2DS3 /// KIR2DS4 /// KIR3DL3 /// KIR3DL3 /// KIR3DS1 (11738374_at) / RFU C1QL1 (11718748_at) / Fold change /veh C1QL1 (11718748_at) / RFU TMPRSS4 (11747572_a_at) / Fold change /veh TMPRSS4 (11747572_a_at) / RFU HAMP (11756126_x_at) / Fold change /veh HAMP (11756126_x_at) / RFU RNFT2 (11725882_a_at) / Fold change /veh RNFT2 (11725882_a_at) / RFU NR4A2 (11747474_a_at) / Fold change /veh NR4A2 (11747474_a_at) / RFU ABCC12 (11746883_a_at) / Fold change /veh ABCC12 (11746883_a_at) / RFU TMEM136 (11760407_x_at) / Fold change /veh TMEM136 (11760407_x_at) / RFU CLDN22 /// WWC2 (11732394_at) / Fold change /veh CLDN22 /// WWC2 (11732394_at) / RFU HLA-DPB1 (11760878_x_at) / Fold change /veh HLA-DPB1 (11760878_x_at) / RFU SPINT1 (11716480_a_at) / Fold change /veh SPINT1 (11716480_a_at) / RFU GAP43 (11754022_s_at) / Fold change /veh GAP43 (11754022_s_at) / RFU A4GNT (11735810_at) / Fold change /veh A4GNT (11735810_at) / RFU PRB3 (11715151_x_at) / Fold change /veh PRB3 (11715151_x_at) / RFU TUBB4B (11761932_at) / Fold change /veh TUBB4B (11761932_at) / RFU CAPN14 (11732068_a_at) / Fold change /veh CAPN14 (11732068_a_at) / RFU TMCC2 (11721928_a_at) / Fold change /veh TMCC2 (11721928_a_at) / RFU IRGQ (11745062_a_at) / Fold change /veh IRGQ (11745062_a_at) / RFU FAM174B (11720279_a_at) / Fold change /veh FAM174B (11720279_a_at) / RFU TMPRSS4 (11748680_a_at) / Fold change /veh TMPRSS4 (11748680_a_at) / RFU FAM212B (11763350_a_at) / Fold change /veh FAM212B (11763350_a_at) / RFU PLEKHG5 (11743358_a_at) / Fold change /veh PLEKHG5 (11743358_a_at) / RFU ZSCAN30 (11745921_a_at) / Fold change /veh ZSCAN30 (11745921_a_at) / RFU CMKLR1 (11741424_a_at) / Fold change /veh CMKLR1 (11741424_a_at) / RFU LOC101060620 /// MAPK8IP1 (11723275_at) / Fold change /veh LOC101060620 /// MAPK8IP1 (11723275_at) / RFU SPTSSB (11747773_x_at) / Fold change /veh SPTSSB (11747773_x_at) / RFU PRSS12 (11739890_at) / Fold change /veh PRSS12 (11739890_at) / RFU BIN1 (11741810_x_at) / Fold change /veh BIN1 (11741810_x_at) / RFU WNT11 (11732464_a_at) / Fold change /veh WNT11 (11732464_a_at) / RFU C10orf10 (11716521_a_at) / Fold change /veh C10orf10 (11716521_a_at) / RFU C5orf56 (11738089_at) / Fold change /veh C5orf56 (11738089_at) / RFU CYB561 (11721691_x_at) / Fold change /veh CYB561 (11721691_x_at) / RFU ANKRD19P (11752326_a_at) / Fold change /veh ANKRD19P (11752326_a_at) / RFU OR2T12 /// OR2T33 /// OR2T8 (11738714_s_at) / Fold change /veh OR2T12 /// OR2T33 /// OR2T8 (11738714_s_at) / RFU VCAN (11748164_a_at) / Fold change /veh VCAN (11748164_a_at) / RFU JSRP1 (11732532_at) / Fold change /veh JSRP1 (11732532_at) / RFU KRTAP10-11 (11738290_x_at) / Fold change /veh KRTAP10-11 (11738290_x_at) / RFU MYO3A (11730013_a_at) / Fold change /veh MYO3A (11730013_a_at) / RFU EBF3 (11725865_a_at) / Fold change /veh EBF3 (11725865_a_at) / RFU CAMK2N1 (11719241_x_at) / Fold change /veh CAMK2N1 (11719241_x_at) / RFU C5orf56 (11738088_a_at) / Fold change /veh C5orf56 (11738088_a_at) / RFU OLFML3 (11715873_a_at) / Fold change /veh OLFML3 (11715873_a_at) / RFU LOC100653217 /// NTM (11731650_a_at) / Fold change /veh LOC100653217 /// NTM (11731650_a_at) / RFU MAPK11 (11762145_a_at) / Fold change /veh MAPK11 (11762145_a_at) / RFU FIZ1 (11724087_x_at) / Fold change /veh FIZ1 (11724087_x_at) / RFU OASL (11726364_x_at) / Fold change /veh OASL (11726364_x_at) / RFU SOX15 (11748057_x_at) / Fold change /veh SOX15 (11748057_x_at) / RFU CD79A (11719716_a_at) / Fold change /veh CD79A (11719716_a_at) / RFU HIST1H1D (11736915_at) / Fold change /veh HIST1H1D (11736915_at) / RFU CASKIN2 (11723855_a_at) / Fold change /veh CASKIN2 (11723855_a_at) / RFU LOC730098 (11760151_x_at) / Fold change /veh LOC730098 (11760151_x_at) / RFU OR4N2 (11742367_at) / Fold change /veh OR4N2 (11742367_at) / RFU PRRT2 (11749266_a_at) / Fold change /veh PRRT2 (11749266_a_at) / RFU SNX32 (11753110_a_at) / Fold change /veh SNX32 (11753110_a_at) / RFU CDHR5 (11726645_a_at) / Fold change /veh CDHR5 (11726645_a_at) / RFU RCAN1 (11760418_a_at) / Fold change /veh RCAN1 (11760418_a_at) / RFU FAM167A (11723789_a_at) / Fold change /veh FAM167A (11723789_a_at) / RFU FAM26E (11764081_at) / Fold change /veh FAM26E (11764081_at) / RFU ISYNA1 (11749810_s_at) / Fold change /veh ISYNA1 (11749810_s_at) / RFU ACY1 (11761880_at) / Fold change /veh ACY1 (11761880_at) / RFU 11764098_at / Fold change /veh 11764098_at / RFU SAMD14 (11745864_x_at) / Fold change /veh SAMD14 (11745864_x_at) / RFU NPB (11741838_a_at) / Fold change /veh NPB (11741838_a_at) / RFU TMPRSS6 (11731388_a_at) / Fold change /veh TMPRSS6 (11731388_a_at) / RFU KRTAP10-2 (11738614_at) / Fold change /veh KRTAP10-2 (11738614_at) / RFU ARHGAP8 /// PRR5-ARHGAP8 (11727945_x_at) / Fold change /veh ARHGAP8 /// PRR5-ARHGAP8 (11727945_x_at) / RFU KRTAP5-7 /// NADSYN1 (11734609_at) / Fold change /veh KRTAP5-7 /// NADSYN1 (11734609_at) / RFU RASL12 (11751679_a_at) / Fold change /veh RASL12 (11751679_a_at) / RFU CDKN2B (11736163_a_at) / Fold change /veh CDKN2B (11736163_a_at) / RFU PRF1 (11729649_at) / Fold change /veh PRF1 (11729649_at) / RFU, ZNF638 /// ZNF638-IT1 / Fold change vs veh, ZNF638 /// ZNF638-IT1 / RFU, PANK3 / Fold change vs veh, PANK3 / RFU, SH3YL1 / Fold change vs veh, SH3YL1 / RFU, ZEB2 / Fold change vs veh, ZEB2 / RFU, NRIP1 / Fold change vs veh, NRIP1 / RFU, PTTG1IP / Fold change vs veh, PTTG1IP / RFU, CAPN2 / Fold change vs veh, CAPN2 / RFU, MED14 / Fold change vs veh, MED14 / RFU, SNORA58 / Fold change vs veh, SNORA58 / RFU, C1orf63 / Fold change vs veh, C1orf63 / RFU, LRRFIP1 / Fold change vs veh, LRRFIP1 / RFU, NDUFAF7 / Fold change vs veh, NDUFAF7 / RFU, SLC12A2 / Fold change vs veh, SLC12A2 / RFU, IBTK / Fold change vs veh, IBTK / RFU, ESF1 / Fold change vs veh, ESF1 / Fold change vs veh, TMEM50B / RFU, TAOK1 / Fold change vs veh, TAOK1 / RFU, ACBD3 / Fold change vs veh, ACBD3 / RFU, TMA16 / Fold change vs veh, TMA16 / RFU, RWDD3 / Fold change vs veh, RWDD3 / RFU, BCAT1 / Fold change vs veh, BCAT1 / RFU, EDEM3 / Fold change vs veh, EDEM3 / RFU, TMEM33 / Fold change vs veh, TMEM33 / RFU, WDR75 / Fold change vs veh, WDR75 / RFU, AHCTF1 / Fold change vs veh, AHCTF1 / RFU, TFRC / Fold change vs veh, TFRC / RFU, ZDHHC17 / Fold change vs veh, ZDHHC17 / RFU, NOM1 / Fold change vs veh, NOM1 / RFU, ARL8B / Fold change vs veh, ARL8B / RFU, ZBTB11 / Fold change vs veh, ZBTB11 / RFU, TAMM41 / Fold change vs veh, TAMM41 / RFU, KIAA1704 /// LOC100996395 / Fold change vs veh, KIAA1704 /// LOC100996395 / RFU, ING1 / Fold change vs veh, ING1 / RFU, TRMT61B / Fold change vs veh, TRMT61B / RFU, FUBP3 / Fold change vs veh, FUBP3 / RFU, TP53 / Fold change vs veh, TP53 / RFU, TNKS2 / Fold change vs veh, TNKS2 / RFU, ZFP14 / Fold change vs veh, ZFP14 / RFU, ACTR2 / Fold change vs veh, ACTR2 / RFU, PPP3R1 / Fold change vs veh, PPP3R1 / RFU, PIK3R1 / Fold change vs veh, PIK3R1 / RFU, HNRNPA1 / Fold change vs veh, HNRNPA1 / RFU, RNF170 / Fold change vs veh, RNF170 / RFU, ZNF28 / Fold change vs veh, ZNF28 / RFU, RNGTT / Fold change vs veh, RNGTT / RFU, OGT / Fold change vs veh, OGT / RFU, BRD1 / Fold change vs veh, BRD1 / RFU, MARS / Fold change vs veh, MARS / RFU, ZNF655 / Fold change vs veh, ZNF655 / RFU, FAHD1 / Fold change vs veh, FAHD1 / RFU, BDP1 / Fold change vs veh, BDP1 / RFU, LRRCC1 / Fold change vs veh, LRRCC1 / RFU, ARID1A / Fold change vs veh, ARID1A / RFU, ZNF146 / Fold change vs veh, ZNF146 / RFU, ZNF330 / Fold change vs veh, ZNF330 / RFU, GPN3 / Fold change vs veh, GPN3 / RFU, C9orf123 / Fold change vs veh, C9orf123 / RFU, N4BP2L2 / Fold change vs veh, N4BP2L2 / RFU, ARFIP1 / Fold change vs veh, ARFIP1 / RFU, FAM179B / Fold change vs veh, FAM179B / RFU, BCL10 / Fold change vs veh, BCL10 / RFU, UHRF1BP1L / Fold change vs veh, UHRF1BP1L / RFU, BET1 / Fold change vs veh, BET1 / RFU, CNOT2 / Fold change vs veh, CNOT2 / RFU, ZNF268 / Fold change vs veh, ZNF268 / Fold change vs veh, ZNF507 / RFU, DGCR2 / Fold change vs veh, DGCR2 / RFU, WDSUB1 / Fold change vs veh, WDSUB1 / Fold change vs veh, HSP90B1 /// MIR3652 / RFU, ADSS / Fold change vs veh, ADSS / RFU, GK / Fold change vs veh, GK / RFU, ZNF148 / Fold change vs veh, ZNF148 / RFU, TAF9 / Fold change vs veh, TAF9 / RFU, SLC1A5 / Fold change vs veh, SLC1A5 / RFU, SLMO2 / Fold change vs veh, SLMO2 / RFU, ABCC4 / Fold change vs veh, ABCC4 / RFU, LOC101060439 /// RAP1B / Fold change vs veh, LOC101060439 /// RAP1B / RFU, RFX7 / Fold change vs veh, RFX7 / RFU, GTPBP10 / Fold change vs veh, GTPBP10 / RFU, CNEP1R1 / Fold change vs veh, CNEP1R1 / RFU, BIVM-ERCC5 /// ERCC5 / Fold change vs veh, BIVM-ERCC5 /// ERCC5 / RFU, ILF3 / Fold change vs veh, ILF3 / RFU 11762660_at / Fold change /veh 11762660_at / RFU VCAN (11757783_s_at) / Fold change /veh VCAN (11757783_s_at) / RFU DDX43 (11728927_at) / Fold change /veh DDX43 (11728927_at) / RFU KRT8 (11758188_x_at) / Fold change /veh KRT8 (11758188_x_at) / RFU NKD1 (11759106_at) / Fold change /veh NKD1 (11759106_at) / RFU SRD5A1 (11742802_a_at) / Fold change /veh SRD5A1 (11742802_a_at) / RFU TPSAB1 /// TPSB2 (11721975_s_at) / Fold change /veh TPSAB1 /// TPSB2 (11721975_s_at) / RFU GSTM3 (11746129_a_at) / Fold change /veh GSTM3 (11746129_a_at) / RFU IL23R (11737362_x_at) / Fold change /veh IL23R (11737362_x_at) / RFU TMEM51 (11727254_a_at) / Fold change /veh TMEM51 (11727254_a_at) / RFU PIWIL2 (11732686_x_at) / Fold change /veh PIWIL2 (11732686_x_at) / RFU ORM1 (11744905_x_at) / Fold change /veh ORM1 (11744905_x_at) / RFU CCDC152 (11743942_at) / Fold change /veh CCDC152 (11743942_at) / RFU ECM1 (11717891_a_at) / Fold change /veh ECM1 (11717891_a_at) / RFU IL23R (11748794_a_at) / Fold change /veh IL23R (11748794_a_at) / RFU TNFAIP8L3 (11732012_x_at) / Fold change /veh TNFAIP8L3 (11732012_x_at) / RFU MBOAT4 (11741988_at) / Fold change /veh MBOAT4 (11741988_at) / RFU 11764193_at / Fold change /veh 11764193_at / RFU TMEM53 (11763286_at) / Fold change /veh TMEM53 (11763286_at) / RFU MAGEB2 (11727129_at) / Fold change /veh MAGEB2 (11727129_at) / RFU TMEM200A (11744735_a_at) / Fold change /veh TMEM200A (11744735_a_at) / RFU CCDC152 (11751479_a_at) / Fold change /veh CCDC152 (11751479_a_at) / RFU FAM211A (11726209_a_at) / Fold change /veh FAM211A (11726209_a_at) / RFU RGS16 (11746705_a_at) / Fold change /veh RGS16 (11746705_a_at) / RFU VCAN (11755009_s_at) / Fold change /veh VCAN (11755009_s_at) / RFU RHOB (11743442_s_at) / Fold change /veh RHOB (11743442_s_at) / RFU RGS16 (11720943_a_at) / Fold change /veh RGS16 (11720943_a_at) / RFU RGS16 (11720944_at) / Fold change /veh RGS16 (11720944_at) / RFU, VPS4B / Fold change vs veh, VPS4B / RFU, CREB1 / Fold change vs veh, CREB1 / RFU, DNAJC13 / Fold change vs veh, DNAJC13 / RFU, GNAQ / Fold change vs veh, GNAQ / RFU, CDK5R1 / Fold change vs veh, CDK5R1 / RFU, ZRANB3 / Fold change vs veh, ZRANB3 / RFU, CUL4A / Fold change vs veh, CUL4A / RFU, CCNY / Fold change vs veh, CCNY / RFU, UFL1 / Fold change vs veh, UFL1 / RFU, COG3 / Fold change vs veh, COG3 / RFU, DIAPH2 / Fold change vs veh, DIAPH2 / RFU, SKA2 / Fold change vs veh, SKA2 / RFU, AFF3 / Fold change vs veh, AFF3 / RFU, LMF1 / Fold change vs veh, LMF1 / RFU, IPO11 / Fold change vs veh, IPO11 / RFU, DFFB / Fold change vs veh, DFFB / RFU, FOXP1 / Fold change vs veh, FOXP1 / RFU, CARD8 / Fold change vs veh, CARD8 / RFU, STRN3 / Fold change vs veh, STRN3 / RFU, ADK / Fold change vs veh, ADK / RFU, RASSF2 / Fold change vs veh, RASSF2 / RFU, WIPF1 / Fold change vs veh, WIPF1 / RFU, LARP1B / Fold change vs veh, LARP1B / RFU, RASA1 / Fold change vs veh, RASA1 / RFU, RB1 / Fold change vs veh, RB1 / RFU, PPFIA1 / Fold change vs veh, PPFIA1 / RFU, MAT2A / Fold change vs veh, MAT2A / RFU, CCT5 / Fold change vs veh, CCT5 / RFU, WDR92 / Fold change vs veh, WDR92 / RFU, CUX1 / Fold change vs veh, CUX1 / RFU, TTC7A / Fold change vs veh, TTC7A / RFU, TMEM135 / Fold change vs veh, TMEM135 / RFU, DEPTOR / Fold change vs veh, DEPTOR / RFU, CPM / Fold change vs veh, CPM / RFU, DNAJB6 / Fold change vs veh, DNAJB6 / RFU, CACNA2D3 / Fold change vs veh, CACNA2D3 / RFU, DTX4 / Fold change vs veh, DTX4 / RFU, TFCP2 / Fold change vs veh, TFCP2 / RFU, GMCL1 /// GMCL1P1 / Fold change vs veh, GMCL1 /// GMCL1P1 / RFU, AEBP2 / Fold change vs veh, AEBP2 / RFU, SNHG1 /// SNORD22 /// SNORD25 /// SNORD26 /// SNORD27 /// SNORD28 /// SNORD29 /// SNORD31 / Fold change vs veh, SNHG1 /// SNORD22 /// SNORD25 /// SNORD26 /// SNORD27 /// SNORD28 /// SNORD29 /// SNORD31 / Fold change (Aza/veh), C12orf56 (ProbeSet 11735607_a_at) / Fold change (ACY-1035/veh), C12orf56 (ProbeSet 11735607_a_at) / Fold change (Aza/veh), FGFR1OP (ProbeSet 11751329_s_at) / Fold change (ACY-1035/veh), FGFR1OP (ProbeSet 11751329_s_at) / Fold change (Aza/veh), VPS36 (ProbeSet 11739960_a_at) / Fold change (ACY-1035/veh), VPS36 (ProbeSet 11739960_a_at) / RFU SYPL1 (11715823_x_at) / Fold change /veh SYPL1 (11715823_x_at) / RFU IGFBP7 (11715501_s_at) / Fold change /veh IGFBP7 (11715501_s_at) / RFU REEP3 (11722064_at) / Fold change /veh REEP3 (11722064_at) / RFU IGLL1 (11728026_x_at) / Fold change /veh IGLL1 (11728026_x_at): dose or concentration left out as unconfirmed
# Conditions: ProbeSet 11719493_s_at; LIST B
compound,measurement,value
Nc1ccc(-c2cccs2)cc1NC(=O)c1ccc2c(c1)cc(C1CC1)n2CCN1CCOCC1 [ACY-1035],"Fold change vs veh, TAF9",0.84
